Results taken from publication PMC8022858, “Discovery of bone morphogenetic protein 7-derived peptide sequences that attenuate the human osteoarthritic chondrocyte phenotype” (Molecular Therapy. Methods & Clinical Development, 2021).

What was measured:
[1] = system: human OA meniscus explants; experiment: PGE2 levels in culture supernatant of meniscus explants; format: cell-based; details: 24 h, relative to control (Figure 6F)
Procedure: (§1) Figure 6 Peptide p[63−82] activity on OA knee joint tissues Human OA knee joint tissues were cultured for 24 h in the presence of BMP7, peptide p[63−82], or the scrambled version of peptide p[63−82] and compared to control conditions. (A) Cartilage tissues (n = 7 individual donors) were exposed to shown conditions and analyzed for COL2A1, COL10A1, and COX-2 mRNA expression by quantitative real-time PCR (normalized for 28S rRNA expression and relative to control conditions). (B) GAG release in medium from cartilage tissues (n = 5 individual donors) was determined, and data were calculated relative to the control condition. (C) PGE2 levels in culture supernatant from synovium (n = 5 donors). (D) PGE2 levels in culture supernatant from cartilage tissues from (B) (n = 5 donors). (E) PGE2 levels in culture supernatant from IPFP (n = 5 donors). (F) PGE2 levels in culture supernatant from the meniscus. Synovium, IPFP, and meniscus tissues were from the same 5 donors as the cartilage tissues in (B) and (C). PGE2 levels in conditions were calculated relative to controls for each donor. In graphs, error bars represent mean ± SEM; data are presented relative to the control condition for each time point. Statistical differences (unpaired two-tailed Student’s t test) were calculated to control condition: ∗p < 0.05, ∗∗p < 0.01, and ∗∗∗p < 0.001. […]

[2] = system: human OA synovium explants; experiment: PGE2 levels in culture supernatant of synovium explants; format: cell-based; details: n = 5 donors, 24 h, relative to control (Figure 6C)
Procedure: as §1

[3] = system: human OA infra-patellar fat pad (IPFP) explants; experiment: PGE2 levels in culture supernatant of IPFP explants; format: cell-based; details: n = 5 donors, 24 h, relative to control (Figure 6E)
Procedure: as §1

OA-HACs = experiment: Duration of chondrocyte phenotype modulation, single versus multiple peptide addition, 10-day follow-up; format: cell-based, human; details: 100 nM; for COL10A1 gene expression, continuous exposure / inhibition of MMP13 and COX-2 expression, continuous exposure / COL2A1 mRNA expression, continuous exposure / inhibition of COL10A1, MMP13, and COX-2 gene expression after single dose, up to and including day / expression of COL10A1, MMP13, and COX-2 at day 10, single dose / timing of action on COL2A1 after single dose: OA-HAC pool (n = 3 donors); for COL10A1 gene expression, continuous exposure / inhibition of MMP13 and COX-2 expression, continuous exposure: multiple addition; for COL10A1 gene expression, continuous exposure: 10 days (Figure 4B); for inhibition of MMP13 and COX-2 expression, continuous exposure: 10 days (Figures 4C, 4D); for COL2A1 mRNA expression, continuous exposure: peptide added every other day (multiple), 10 days (Figure 4A); for inhibition of COL10A1, MMP13, and COX-2 gene expression after single dose, up to and including day: single dose at start, sampled every 2 days; for timing of action on COL2A1 after single dose: compared with timing for COL10A1, MMP13, COX-2; for detectable changes in chondrocyte gene expression phenotype after a single exposure: OA-HAC pool
Procedure: The duration of chondrocyte phenotypic change induced by candidate peptides p[63−82] and p[113−132] was determined by exposing OA-HACs to a single dose of peptide or continuously keeping the peptides present during OA-HAC culture. In both cases, the phenotype of the OA-HACs was analyzed every other day during a 10-day follow-up. Non-OA-HACs were used as a reference for chondrocyte phenotype status.
Figure 4 Duration of chondrocyte phenotype modulation by BMP7-derived peptides A pool of OA-HACs (n = 3 donors) was cultured in the presence or absence of 100 nM peptides p[63−82] or p[113−132] and compared to a pool of human articular chondrocytes from a non-OA source. The medium was changed every 2 days. Peptides were added at the start of the experiment and subsequently at every medium change (multiple) or only at the start of the experiment and not during every subsequent medium change (single). At days 0, 2, 4, 6, 8, and 10 in culture, samples were harvested and analyzed for the expression of the indicated mRNAs by quantitative real-time PCR (normalized for 28S rRNA expression) (A) COL2A1 mRNA expression. (B) COL10A1 mRNA expression. (C) MMP13 mRNA expression. (D) COX-2 mRNA expression. In graphs, error bars represent mean ± SEM; data are presented relative to the “control OA” condition of each time point. Statistical differences were calculated to control conditions. Error bars represent mean ± SEM, and statistical significance for peptide conditions or control non-OA versus control OA condition as determined by unpaired two-tailed Student’s t test is represented as ∗p < 0.05, ∗∗p < 0.01, and ∗∗∗p < 0.001.
For the peptide-screening and alanine-scanning experiments, cDNA was prepared using the Cells-to-Ct kit (Invitrogen) according to the manufacturer’s protocol. For the other experiments, cells or homogenized tissues (Mikro-Dismembrator; Braun Biotech International) were lysed in TRIzol (Life Technologies) and RNA isolation and cDNA synthesis were performed as described earlier.[27]^,[57] Quantitative real-time PCR was performed using Takyon qPCR Master Mix plus blue for SYBR Green (Eurogentec). A CFX96 Real-Time PCR Detection System (Bio-Rad) was used for amplification: initial denaturation 95°C for 10 min, followed by 40 cycles of amplification (denaturing 15 s at 95°C and annealing 1 min at 60°C). Data were analyzed using the standard curve method, mRNA expression was normalized to a reference gene (28S rRNA), and gene expression was calculated as fold change as compared to control conditions.

Question: “BMP7: full-length recombinant bone morphogenetic protein 7 (R&D Systems), used at 1 nM” was tested. Which “PGE2 levels from meniscus explants” value [1] did it give?
Answer: reduced

Question: What about the “PGE2 levels in culture supernatants of synovial explants” value [2] of the same substance?
Answer: not significantly changed

Question: What about the “PGE2 levels from IPFP explants” value [3] of the same substance?
Answer: reduced

Question: Which “PGE2 levels from meniscus explants” value [1] does the source give for H-AAYYSEGESAFPLNSYMNAT-OH [p[63−82]] here?
Answer: reduced

Question: What about the “PGE2 levels in culture supernatants of synovial explants” value [2] of the same substance?
Answer: not significantly changed

Question: What about the “PGE2 levels from IPFP explants” value [3] of the same substance?
Answer: reduced

Question: What about the “COL10A1 gene expression, continuous exposure” value (OA-HACs) of the same substance?
Answer: steadily decreased over time

Question: What about the “inhibition of MMP13 and COX-2 expression, continuous exposure” value (OA-HACs) of the same substance?
Answer: continuously observed during the treatment period

Question: What about the “COL2A1 mRNA expression, continuous exposure” value (OA-HACs) of the same substance?
Answer: overtime increasing

Question: What about the “inhibition of COL10A1, MMP13, and COX-2 gene expression after single dose, up to and including day” value (OA-HACs) of the same substance?
Answer: up to 8 day

Question: And the “expression of COL10A1, MMP13, and COX-2 at day 10, single dose” value (OA-HACs)?
Answer: indistinguishable from non-treated OA HACs

Question: What about the “timing of action on COL2A1 after single dose” value (OA-HACs) of the same substance?
Answer: not detectable anymore from day 8 onward

Question: And the “detectable changes in chondrocyte gene expression phenotype after a single exposure” value (OA-HACs)?
Answer: up to 8 days

Question: What does the source list for H-SVLYFDDSSNVILKKYRNMV-OH [p[113−132]]?
Answer: COL10A1 gene expression, continuous exposure (OA-HACs): steadily decreased over time; inhibition of MMP13 and COX-2 expression, continuous exposure (OA-HACs): continuously observed during the treatment period; COL2A1 mRNA expression, continuous exposure (OA-HACs): overtime increasing; inhibition of COL10A1, MMP13, and COX-2 gene expression after single dose, up to and including day (OA-HACs): up to 8 day; expression of COL10A1, MMP13, and COX-2 at day 10, single dose (OA-HACs): indistinguishable from non-treated OA HACs; timing of action on COL2A1 after single dose (OA-HACs): similar; detectable changes in chondrocyte gene expression phenotype after a single exposure (OA-HACs): up to 8 days
